Where a SMILES comes first, the peptide text is derived from it. [ ]: non-standard residue; d: D form. The star is where a group is joined. cisHyp = O=C(O)[C@@H]1C[C@H](O)CN1; NMeL = CN[C@@H](CC(C)C)C(=O)O; NMeV = CN[C@H](C(=O)O)C(C)C; Octanoyl = CCCCCCCC(=O)*

Assay [1] concerns CD11b on PMNL surface. Briefly: CD11b change on PMNL surface stimulated by CCL11 (flow cytometry). It counts as cell-based. As to conditions: Homo sapiens, PMNL, 0.5 h; 1 μg/mL test compound, 30 min pretreatment, 2.5 nm CCL11 30 min at 37° C., CD16 negative cells; assay SD +/-2%; read-out: CD11b change (100% as baseline). As to the method:
CD11b Change (100% as Baseline) on PMNL Surface Stimulated by 2.5 nm CCL11
(PMNL) cells were pretreated with 3 μg/mL ApoA-IV (positive control), 1 μg/mL test compounds, and formulation vehicle (negative control) for 30 minutes and incubated with serial dilutions of CCL 11 for 30 minutes at 37° C. Samples were stained with anti-CD16-PE-Cy5 and anti-CD11b-PE (ICRF44) antibodies. Eosinophils were identified as CD16 negative cells. CD11b upregulation was analyzed by flow cytometry and reported above. (Standard deviation in the assay is +/−2%). See results in Table 2 below.

The test system of assay [2] is Allergic Human Purified Peripheral Blood Eosinophils. Briefly: Percent eosinophil apoptosis (Annexin V-FITC, flow cytometry) in allergic human purified peripheral blood eosinophils. Conditions: Homo sapiens, Eosinophil, 10 μg/mL test compound, IL-5 (50 pM), 18 hr incubation, assay SD +/-2.3%; for viability at 10 µg/mL: annexin Vneg, read-out: Percent live EO cells; for Percent apoptotic eosinophils (annexin V-positive) at 10 µg/mL: annexin Vpos, read-out: Percent of apoptotic EO cells. It counts as cell-based. As to the method:
Percent Eosinophil Apoptosis in Allergic Human Purified Peripheral Blood Eosinophils
Aliquots were removed after 18 hr incubation, washed twice in PBS, and resuspended in binding buffer. The eosinophil cells were stained using the Annexin V-FITC Apoptosis Detection Kit I, (Sigma Aldrich) and immediately analyzed by flow cytometry. Each sample was acquired for 1 min, and the total number of eosinophils gated on a forward scatter/side scatter plot and the percentage of live cells (annexin Vneg) and apoptotic cells (annexin Vpos) was recorded.

For the compound `CCCC[C@@H](C)C[C@@H](C)C(=O)N(C)[C@@H](CC(C)C)C(=O)N[C@H](C(=O)N(C)[C@H](C(=O)N1C[C@@H](O)C[C@H]1C(=O)N1C(=O)C=C[C@@H]1C)C(C)C)C(C)OC(C)=O` (some centres unmarked) [Compound 1a], the activity at 1 µg/mL in assay [1] was determined as 129%. Also, in assay [2], the viability at 10 µg/mL came to 42.5% and the Percent apoptotic eosinophils (annexin V-positive) at 10 µg/mL came out at 53.2%.

On to `CCCCC(C)CC(C)C(=O)N(C)[C@@H](CC(C)C)C(=O)N[C@H](C(=O)N(C)[C@H](C(=O)N1C[C@@H](O)C[C@H]1C(=O)N1C(=O)C=C[C@@H]1C)C(C)C)C(C)OC(C)=O` (some centres unmarked) [Compound 1b], for which the activity at 1 µg/mL in assay [1] turned out to be 128%. Besides, in assay [2], the viability at 10 µg/mL stood at 41.8% and the Percent apoptotic eosinophils (annexin V-positive) at 10 µg/mL is 55%.

Take `CCCC[C@@H](C)C[C@@H](C)C(=O)N(C)[C@@H](CC(C)C)C(=O)N[C@H](C(=O)N(C)[C@H](C(=O)N1CCC[C@H]1C(=O)N1C(=O)C=C[C@@H]1C)C(C)C)C(C)OC(C)=O` (some centres unmarked) [Compound 3a]: the activity at 1 µg/mL in assay [1] stood at 139%. Further, in assay [2], the viability at 10 µg/mL is 51.6% and the Percent apoptotic eosinophils (annexin V-positive) at 10 µg/mL is 43.7%.

Turning to `CCCCCCCC(=O)N(C)[C@@H](CC(C)C)C(=O)N[C@H](C(=O)N(C)[C@H](C(=O)N1C[C@@H](O)C[C@H]1C(=O)N1C(=O)C=C[C@@H]1C)C(C)C)C(C)OC(C)=O` (some centres unmarked) [Compound 5a], in assay [1], the activity at 1 µg/mL was determined as 129%. Further, in assay [2], the viability at 10 µg/mL stood at 42.9% and the Percent apoptotic eosinophils (annexin V-positive) at 10 µg/mL is 53.1%.

For `CCCCC(C)CC(C)C(=O)N[C@@H](CC(C)C)C(=O)N[C@H](C(=O)N[C@H](C(=O)N1C[C@@H](O)C[C@H]1C(=O)N1C(=O)C=C[C@@H]1C)C(C)C)C(C)OC(C)=O` (some centres unmarked) [Compound 6a], the activity at 1 µg/mL in assay [1] stood at 141%. In assay [2], the viability at 10 µg/mL was 54.5% and the Percent apoptotic eosinophils (annexin V-positive) at 10 µg/mL was 42.8%.

Turning to `CCCCC(C)CC(C)C(=O)N(C)CC(=O)N[C@H](C(=O)N(C)CC(=O)N1C[C@@H](O)C[C@H]1C(=O)N1C(=O)C=C[C@@H]1C)C(C)OC(C)=O` (some centres unmarked) [Compound 7a], the activity at 1 µg/mL in assay [1] was determined as 149%. In assay [2], the viability at 10 µg/mL was found to be 59.4% and the Percent apoptotic eosinophils (annexin V-positive) at 10 µg/mL was 39.9%.

`CCCCC(C)CC(C)C(=O)N(C)[C@@H](CC(C)C)C(=O)N[C@H](C(=O)N(C)[C@H](C(=O)N1C[C@@H](O)C[C@H]1C(=O)N1C(=O)C=C[C@@H]1C)C(C)C)C(C)O` (some centres unmarked) [Compound 8a]: the activity at 1 µg/mL in assay [1] was determined as 122%. Further, in assay [2], the viability at 10 µg/mL amounted to 31.2% and the Percent apoptotic eosinophils (annexin V-positive) at 10 µg/mL is 60.1%.

Consider `CCCCC(C)CC(C)C(=O)N(C)[C@@H](CC(C)C)C(=O)N[C@@H](COC(C)=O)C(=O)N(C)[C@H](C(=O)N1C[C@@H](O)C[C@H]1C(=O)N1C(=O)C=C[C@@H]1C)C(C)C` (some centres unmarked) [Compound 9a], for which, in assay [1], the activity at 1 µg/mL was found to be 127%. In assay [2], the viability at 10 µg/mL was 39.6% and the Percent apoptotic eosinophils (annexin V-positive) at 10 µg/mL came out at 56.4%.

Consider `CCCCC(C)CC(C)C(=O)N(C)[C@@H](CC(C)C)C(=O)N[C@@H](CS)C(=O)N(C)[C@H](C(=O)N1CCC[C@H]1C(=O)N1C(=O)C=C[C@@H]1C)C(C)C` (some centres unmarked) [Compound 11a], for which the activity at 1 µg/mL in assay [1] came to 135%. In addition, in assay [2], the viability at 10 µg/mL is 49.7% and the Percent apoptotic eosinophils (annexin V-positive) at 10 µg/mL amounted to 44.4%.

For the compound `CCCCC(C)CC(C)C(=O)N(C)[C@@H](CC(C)C)C(=O)N[C@H](C(=O)N(C)[C@H](C(=O)N1CCC[C@H]1C(=O)N1C(=O)C=CC1=O)C(C)C)C(C)OC(C)=O` (some centres unmarked) [Compound 12a], the activity at 1 µg/mL in assay [1] was determined as 141%. Moreover, in assay [2], the viability at 10 µg/mL was 52% and the Percent apoptotic eosinophils (annexin V-positive) at 10 µg/mL was determined as 42.1%.

Turning to `CC(C)C[C@@H](C(=O)N[C@H](C(=O)N(C)[C@H](C(=O)N1C[C@@H](O)C[C@H]1C(=O)N1C(=O)C=C[C@@H]1C)C(C)C)C(C)O)N(C)C(=O)C1CCCCC1` (some centres unmarked) [Compound 13a], in assay [2], the viability at 10 µg/mL was determined as 51.3% and the Percent apoptotic eosinophils (annexin V-positive) at 10 µg/mL stood at 44%.

Take `CC/C=C\C/C=C\C/C=C\C/C=C\C/C=C\CCCC(=O)N(C)[C@@H](CC(C)C)C(=O)N[C@H](C(=O)N(C)[C@H](C(=O)N1C[C@@H](O)C[C@H]1C(=O)N1C(=O)C=C[C@@H]1C)C(C)C)C(C)O` (some centres unmarked) [Compound 14a]: in assay [2], the viability at 10 µg/mL is 26.6% and the Percent apoptotic eosinophils (annexin V-positive) at 10 µg/mL turned out to be 67.1%.

In the case of `CCCCCCCC(=O)N(C)[C@@H](CC(C)C)C(=O)N[C@@H](COC(C)=O)C(=O)N(C)[C@H](C(=O)N1C[C@@H](O)C[C@H]1C(=O)OC)C(C)C` [Compound 17a] (Octanoyl-[NMeL]S(Ac)[NMeV][cisHyp]-OMe), in assay [2], the viability at 10 µg/mL amounted to 53.5% and the Percent apoptotic eosinophils (annexin V-positive) at 10 µg/mL was 48.2%.

In the case of `CCCCCCCC(=O)N(C)[C@@H](Cc1ccccc1)C(=O)N[C@H](C(=O)N(C)[C@H](C(=O)N1C[C@@H](O)C[C@H]1C(=O)N1C(=O)C=CC1=O)C(C)C)C(C)OC(C)=O` (some centres unmarked) [Compound 18a], in assay [2], the viability at 10 µg/mL was found to be 41% and the Percent apoptotic eosinophils (annexin V-positive) at 10 µg/mL was 55.5%.

Consider `CCCCCCCC(=O)N(C)[C@@H](CC(C)C)C(=O)N[C@H](C(=O)N(C)[C@@H](CCSC)C(=O)N1C[C@@H](O)C[C@H]1C(=O)N1C(=O)C=CC1=O)C(C)OC(C)=O` (some centres unmarked) [Compound 19a], for which, in assay [2], the viability at 10 µg/mL turned out to be 52.7% and the Percent apoptotic eosinophils (annexin V-positive) at 10 µg/mL came out at 41.8%.

For the compound `CCCCCCCC(=O)N(C)[C@H](C(=O)N[C@H](C(=O)N(C)[C@@H](Cc1c[nH]c2ccccc12)C(=O)N1C[C@@H](O)C[C@H]1C(=O)N1C(=O)C=CC1=O)C(C)OC(C)=O)C(C)CC` (some centres unmarked) [Compound 20a], in assay [2], the viability at 10 µg/mL worked out at 59.3% and the Percent apoptotic eosinophils (annexin V-positive) at 10 µg/mL was 39.4%.

As to `CC/C=C\C/C=C\C/C=C\C/C=C\C/C=C\CCCC(=O)N(C)[C@@H](CC(C)C)C(=O)N[C@H](C(=O)N(C)[C@H](C(=O)N1C[C@@H](O)C[C@H]1C(=O)N1C(=O)C=CC1=O)C(C)C)C(C)OC(C)=O` (some centres unmarked) [Compound 21a], in assay [2], the viability at 10 µg/mL turned out to be 38.2% and the Percent apoptotic eosinophils (annexin V-positive) at 10 µg/mL came out at 58%.

Take `CC/C=C\C/C=C\C/C=C\C/C=C\C/C=C\CCCC(=O)N(C)[C@@H](CC(C)C)C(=O)N[C@H](C(=O)N(C)[C@H](C(=O)N1C[C@@H](O)C[C@H]1C(=O)N1C(=O)C=CC1=O)C(C)C)C(C)O` (some centres unmarked) [Compound 22a]: in assay [2], the viability at 10 µg/mL is 28.1% and the Percent apoptotic eosinophils (annexin V-positive) at 10 µg/mL is 68.7%.

`CC/C=C\C/C=C\C/C=C\C/C=C\C/C=C\CCCC(=O)N(C)[C@@H](Cc1ccccc1)C(=O)N[C@H](C(=O)N(C)[C@H](C(=O)N1C[C@@H](O)C[C@H]1C(=O)N1C(=O)C=CC1=O)C(C)C)C(C)OC(C)=O` (some centres unmarked) [Compound 23a]: in assay [2], the viability at 10 µg/mL is 31.4% and the Percent apoptotic eosinophils (annexin V-positive) at 10 µg/mL came out at 65.6%.

Turning to `CC/C=C\C/C=C\C/C=C\C/C=C\C/C=C\CCCC(=O)N(C)[C@@H](Cc1ccccc1)C(=O)N[C@H](C(=O)N(C)[C@H](C(=O)N1CCC[C@H]1C(=O)N1C(=O)C=CC1=O)C(C)C)C(C)OC(C)=O` (some centres unmarked) [Compound 24a], in assay [2], the viability at 10 µg/mL came to 33.8% and the Percent apoptotic eosinophils (annexin V-positive) at 10 µg/mL stood at 64.9%.

In the case of `CC/C=C\C/C=C\C/C=C\C/C=C\C/C=C\CCCC(=O)N(C)[C@@H](Cc1ccccc1)C(=O)N[C@H](C(=O)N(C)[C@H](C(=O)N1CCC[C@H]1C(=O)N1C(=O)C=CC1=O)C(C)C)C(C)O` (some centres unmarked) [Compound 25a], in assay [2], the viability at 10 µg/mL came out at 22.3% and the Percent apoptotic eosinophils (annexin V-positive) at 10 µg/mL worked out at 73.1%.

As for `CC/C=C\C/C=C\C/C=C\C/C=C\C/C=C\CCCCCC(=O)N(C)[C@@H](Cc1ccccc1)C(=O)N[C@H](C(=O)N(C)[C@H](C(=O)N1CCC[C@H]1C(=O)N1C(=O)C=CC1=O)C(C)C)C(C)O` (some centres unmarked) [Compound 26a], in assay [2], the viability at 10 µg/mL worked out at 30% and the Percent apoptotic eosinophils (annexin V-positive) at 10 µg/mL came out at 67.3%.

Take `CC/C=C\C/C=C\C/C=C\C/C=C\C/C=C\CCCC(=O)N(C)[C@@H](CC(C)C)C(=O)N[C@H](C(=O)N(C)[C@H](C(=O)N1C[C@@H](O)C[C@H]1C(=O)N1C(=O)C=C[C@@H]1C)C(C)C)C(C)OC(C)=O` (some centres unmarked) [Compound 27a]: in assay [2], the viability at 10 µg/mL was 39.1% and the Percent apoptotic eosinophils (annexin V-positive) at 10 µg/mL worked out at 56.5%.

The values are drawn from patent US20240002436A1, “RESPIRATORY TREATMENTS” (Hofseth Biocare ASA, priority 2020, published 2024).
